For experiment [1], the target named is Serine/threonine-protein kinase PAK 6 (Homo sapiens) (UniProt Q9NQU5). As to conditions: at 10 µM.
The target of experiment [2] is Platelet-derived growth factor receptor alpha (Homo sapiens, UniProt P16234). As to conditions: at 10 µM.
For experiment [3], the target named is T1, Ephrin type-A receptor 6 (Homo sapiens) (UniProt Q9UF33).
T1 sequence (whole entry): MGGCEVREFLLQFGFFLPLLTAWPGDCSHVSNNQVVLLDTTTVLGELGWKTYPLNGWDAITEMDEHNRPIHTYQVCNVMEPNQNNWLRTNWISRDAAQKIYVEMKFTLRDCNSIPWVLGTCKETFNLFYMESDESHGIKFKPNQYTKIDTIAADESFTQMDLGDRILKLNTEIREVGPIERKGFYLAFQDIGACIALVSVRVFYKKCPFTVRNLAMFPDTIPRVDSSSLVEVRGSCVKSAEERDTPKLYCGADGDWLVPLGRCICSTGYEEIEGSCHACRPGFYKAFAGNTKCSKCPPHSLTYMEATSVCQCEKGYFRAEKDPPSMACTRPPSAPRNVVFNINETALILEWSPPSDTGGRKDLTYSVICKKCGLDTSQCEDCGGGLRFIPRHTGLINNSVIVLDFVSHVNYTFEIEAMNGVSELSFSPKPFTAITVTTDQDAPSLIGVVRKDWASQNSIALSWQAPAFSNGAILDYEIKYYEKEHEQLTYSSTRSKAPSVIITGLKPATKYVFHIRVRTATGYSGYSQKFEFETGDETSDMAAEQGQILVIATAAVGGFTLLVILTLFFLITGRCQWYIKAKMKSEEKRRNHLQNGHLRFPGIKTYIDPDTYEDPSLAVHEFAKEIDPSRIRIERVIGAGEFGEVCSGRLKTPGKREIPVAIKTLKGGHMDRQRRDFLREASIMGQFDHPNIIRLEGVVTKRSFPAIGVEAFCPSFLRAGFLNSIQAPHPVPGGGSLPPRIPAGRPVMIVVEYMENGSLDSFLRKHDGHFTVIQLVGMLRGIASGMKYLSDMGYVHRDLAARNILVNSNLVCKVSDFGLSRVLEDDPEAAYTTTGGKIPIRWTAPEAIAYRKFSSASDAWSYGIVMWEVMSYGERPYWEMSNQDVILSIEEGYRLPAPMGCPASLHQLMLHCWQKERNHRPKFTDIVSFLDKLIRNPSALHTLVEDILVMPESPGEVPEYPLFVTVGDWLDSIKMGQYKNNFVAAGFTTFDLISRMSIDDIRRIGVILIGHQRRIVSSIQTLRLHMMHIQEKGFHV
As to conditions: at 10 µM.

The target of experiment [4] is T2, Dual specificity protein kinase TTK (Homo sapiens) (UniProt P33981).
T2 sequence (whole entry): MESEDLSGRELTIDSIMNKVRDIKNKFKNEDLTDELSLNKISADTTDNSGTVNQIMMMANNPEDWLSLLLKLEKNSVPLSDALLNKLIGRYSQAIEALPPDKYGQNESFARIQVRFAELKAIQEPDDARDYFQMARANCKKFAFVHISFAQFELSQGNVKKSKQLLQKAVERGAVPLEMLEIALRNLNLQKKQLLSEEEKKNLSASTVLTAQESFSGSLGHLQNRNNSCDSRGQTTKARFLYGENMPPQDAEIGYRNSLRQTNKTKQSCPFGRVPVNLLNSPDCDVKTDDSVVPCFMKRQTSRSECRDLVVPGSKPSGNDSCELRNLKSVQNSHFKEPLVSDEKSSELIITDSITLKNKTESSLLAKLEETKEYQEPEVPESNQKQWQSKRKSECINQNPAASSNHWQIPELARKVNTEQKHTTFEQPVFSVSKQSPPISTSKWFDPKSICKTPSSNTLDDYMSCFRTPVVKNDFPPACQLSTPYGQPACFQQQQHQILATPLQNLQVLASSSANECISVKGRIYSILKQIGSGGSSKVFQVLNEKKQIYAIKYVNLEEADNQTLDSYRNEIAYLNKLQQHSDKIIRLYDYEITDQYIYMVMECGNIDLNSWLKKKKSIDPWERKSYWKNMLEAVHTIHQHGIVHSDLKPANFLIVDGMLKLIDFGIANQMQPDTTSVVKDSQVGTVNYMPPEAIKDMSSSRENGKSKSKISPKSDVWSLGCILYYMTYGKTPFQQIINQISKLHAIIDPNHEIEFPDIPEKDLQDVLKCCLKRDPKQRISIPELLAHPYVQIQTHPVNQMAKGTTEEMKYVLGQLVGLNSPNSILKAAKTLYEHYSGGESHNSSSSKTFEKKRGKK
The experiment in a line: Selectivity interaction (KinomeScan (DiscoverX)) EUB0000595a TTK. As to conditions: at 10 µM.

For experiment [5], the target named is Phosphatidylinositol 4,5-bisphosphate 3-kinase catalytic subunit gamma isoform (Homo sapiens) (UniProt P48736). The experiment is described as follows: Selectivity interaction (KinomeScan (DiscoverX)) EUB0000595a PIK3CG. Particulars: at 10 µM.
The target in experiment [6] is T3, Phosphatidylinositol 5-phosphate 4-kinase type-2 beta (Homo sapiens) (UniProt P78356).
T3 sequence (whole entry): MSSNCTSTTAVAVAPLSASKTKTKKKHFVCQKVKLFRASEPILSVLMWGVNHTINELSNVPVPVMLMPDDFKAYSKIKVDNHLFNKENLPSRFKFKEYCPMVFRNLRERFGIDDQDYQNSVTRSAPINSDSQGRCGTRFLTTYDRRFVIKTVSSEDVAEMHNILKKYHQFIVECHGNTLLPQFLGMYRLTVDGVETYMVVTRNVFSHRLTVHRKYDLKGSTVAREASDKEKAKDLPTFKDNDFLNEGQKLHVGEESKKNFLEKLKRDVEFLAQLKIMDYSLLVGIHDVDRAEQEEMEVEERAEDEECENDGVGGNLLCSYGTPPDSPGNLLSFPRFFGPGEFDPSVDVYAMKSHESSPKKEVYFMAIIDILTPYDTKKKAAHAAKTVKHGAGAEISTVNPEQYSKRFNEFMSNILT
The experiment in a line: Selectivity interaction (ActivX KiNativ screen (ex vivo kinase selectivity in human PBMCs)) EUB0001619a PIP4K2B. The class given is cell-based. As to conditions: PBMC, at 1 µM.

In experiment [7] the target is Cyclin-dependent kinase 2 (Homo sapiens, UniProt P24941). The experiment in a line: Selectivity interaction (ActivX KiNativ screen (ex vivo kinase selectivity in human PBMCs)) EUB0001619a CDK2. Format: cell-based. As to conditions: PBMC, at 1 µM.
Experiment [8] has as its target DNA-dependent protein kinase catalytic subunit (Homo sapiens) (UniProt P78527). The experiment is described as follows: Selectivity interaction (Kinase panel (KiNativ target engagement assay in Jurkat cells)) EUB0001635a PRKDC. The class given is cell-based. As to conditions: Selectivity number of off-targets 0.0, Selectivity number of targets 233.0, Source Knowledge https://www.sciencedirect.com/science/article/pii/S2451945619300674?via%3Dihub, at 1 µM.

The target in experiment [9] is MAP kinase-activated protein kinase 3 (Homo sapiens) (UniProt Q16644). The experiment in a line: Selectivity interaction (Kinase panel (KiNativ target engagement assay in Jurkat cells)) EUB0001635a MAPKAPK3. Format: cell-based. As to conditions: Selectivity number of off-targets 0.0, Selectivity number of targets 233.0, Source Knowledge https://www.sciencedirect.com/science/article/pii/S2451945619300674?via%3Dihub, at 1 µM.

DNA-dependent protein kinase catalytic subunit (Homo sapiens), sequence (P78527 whole entry): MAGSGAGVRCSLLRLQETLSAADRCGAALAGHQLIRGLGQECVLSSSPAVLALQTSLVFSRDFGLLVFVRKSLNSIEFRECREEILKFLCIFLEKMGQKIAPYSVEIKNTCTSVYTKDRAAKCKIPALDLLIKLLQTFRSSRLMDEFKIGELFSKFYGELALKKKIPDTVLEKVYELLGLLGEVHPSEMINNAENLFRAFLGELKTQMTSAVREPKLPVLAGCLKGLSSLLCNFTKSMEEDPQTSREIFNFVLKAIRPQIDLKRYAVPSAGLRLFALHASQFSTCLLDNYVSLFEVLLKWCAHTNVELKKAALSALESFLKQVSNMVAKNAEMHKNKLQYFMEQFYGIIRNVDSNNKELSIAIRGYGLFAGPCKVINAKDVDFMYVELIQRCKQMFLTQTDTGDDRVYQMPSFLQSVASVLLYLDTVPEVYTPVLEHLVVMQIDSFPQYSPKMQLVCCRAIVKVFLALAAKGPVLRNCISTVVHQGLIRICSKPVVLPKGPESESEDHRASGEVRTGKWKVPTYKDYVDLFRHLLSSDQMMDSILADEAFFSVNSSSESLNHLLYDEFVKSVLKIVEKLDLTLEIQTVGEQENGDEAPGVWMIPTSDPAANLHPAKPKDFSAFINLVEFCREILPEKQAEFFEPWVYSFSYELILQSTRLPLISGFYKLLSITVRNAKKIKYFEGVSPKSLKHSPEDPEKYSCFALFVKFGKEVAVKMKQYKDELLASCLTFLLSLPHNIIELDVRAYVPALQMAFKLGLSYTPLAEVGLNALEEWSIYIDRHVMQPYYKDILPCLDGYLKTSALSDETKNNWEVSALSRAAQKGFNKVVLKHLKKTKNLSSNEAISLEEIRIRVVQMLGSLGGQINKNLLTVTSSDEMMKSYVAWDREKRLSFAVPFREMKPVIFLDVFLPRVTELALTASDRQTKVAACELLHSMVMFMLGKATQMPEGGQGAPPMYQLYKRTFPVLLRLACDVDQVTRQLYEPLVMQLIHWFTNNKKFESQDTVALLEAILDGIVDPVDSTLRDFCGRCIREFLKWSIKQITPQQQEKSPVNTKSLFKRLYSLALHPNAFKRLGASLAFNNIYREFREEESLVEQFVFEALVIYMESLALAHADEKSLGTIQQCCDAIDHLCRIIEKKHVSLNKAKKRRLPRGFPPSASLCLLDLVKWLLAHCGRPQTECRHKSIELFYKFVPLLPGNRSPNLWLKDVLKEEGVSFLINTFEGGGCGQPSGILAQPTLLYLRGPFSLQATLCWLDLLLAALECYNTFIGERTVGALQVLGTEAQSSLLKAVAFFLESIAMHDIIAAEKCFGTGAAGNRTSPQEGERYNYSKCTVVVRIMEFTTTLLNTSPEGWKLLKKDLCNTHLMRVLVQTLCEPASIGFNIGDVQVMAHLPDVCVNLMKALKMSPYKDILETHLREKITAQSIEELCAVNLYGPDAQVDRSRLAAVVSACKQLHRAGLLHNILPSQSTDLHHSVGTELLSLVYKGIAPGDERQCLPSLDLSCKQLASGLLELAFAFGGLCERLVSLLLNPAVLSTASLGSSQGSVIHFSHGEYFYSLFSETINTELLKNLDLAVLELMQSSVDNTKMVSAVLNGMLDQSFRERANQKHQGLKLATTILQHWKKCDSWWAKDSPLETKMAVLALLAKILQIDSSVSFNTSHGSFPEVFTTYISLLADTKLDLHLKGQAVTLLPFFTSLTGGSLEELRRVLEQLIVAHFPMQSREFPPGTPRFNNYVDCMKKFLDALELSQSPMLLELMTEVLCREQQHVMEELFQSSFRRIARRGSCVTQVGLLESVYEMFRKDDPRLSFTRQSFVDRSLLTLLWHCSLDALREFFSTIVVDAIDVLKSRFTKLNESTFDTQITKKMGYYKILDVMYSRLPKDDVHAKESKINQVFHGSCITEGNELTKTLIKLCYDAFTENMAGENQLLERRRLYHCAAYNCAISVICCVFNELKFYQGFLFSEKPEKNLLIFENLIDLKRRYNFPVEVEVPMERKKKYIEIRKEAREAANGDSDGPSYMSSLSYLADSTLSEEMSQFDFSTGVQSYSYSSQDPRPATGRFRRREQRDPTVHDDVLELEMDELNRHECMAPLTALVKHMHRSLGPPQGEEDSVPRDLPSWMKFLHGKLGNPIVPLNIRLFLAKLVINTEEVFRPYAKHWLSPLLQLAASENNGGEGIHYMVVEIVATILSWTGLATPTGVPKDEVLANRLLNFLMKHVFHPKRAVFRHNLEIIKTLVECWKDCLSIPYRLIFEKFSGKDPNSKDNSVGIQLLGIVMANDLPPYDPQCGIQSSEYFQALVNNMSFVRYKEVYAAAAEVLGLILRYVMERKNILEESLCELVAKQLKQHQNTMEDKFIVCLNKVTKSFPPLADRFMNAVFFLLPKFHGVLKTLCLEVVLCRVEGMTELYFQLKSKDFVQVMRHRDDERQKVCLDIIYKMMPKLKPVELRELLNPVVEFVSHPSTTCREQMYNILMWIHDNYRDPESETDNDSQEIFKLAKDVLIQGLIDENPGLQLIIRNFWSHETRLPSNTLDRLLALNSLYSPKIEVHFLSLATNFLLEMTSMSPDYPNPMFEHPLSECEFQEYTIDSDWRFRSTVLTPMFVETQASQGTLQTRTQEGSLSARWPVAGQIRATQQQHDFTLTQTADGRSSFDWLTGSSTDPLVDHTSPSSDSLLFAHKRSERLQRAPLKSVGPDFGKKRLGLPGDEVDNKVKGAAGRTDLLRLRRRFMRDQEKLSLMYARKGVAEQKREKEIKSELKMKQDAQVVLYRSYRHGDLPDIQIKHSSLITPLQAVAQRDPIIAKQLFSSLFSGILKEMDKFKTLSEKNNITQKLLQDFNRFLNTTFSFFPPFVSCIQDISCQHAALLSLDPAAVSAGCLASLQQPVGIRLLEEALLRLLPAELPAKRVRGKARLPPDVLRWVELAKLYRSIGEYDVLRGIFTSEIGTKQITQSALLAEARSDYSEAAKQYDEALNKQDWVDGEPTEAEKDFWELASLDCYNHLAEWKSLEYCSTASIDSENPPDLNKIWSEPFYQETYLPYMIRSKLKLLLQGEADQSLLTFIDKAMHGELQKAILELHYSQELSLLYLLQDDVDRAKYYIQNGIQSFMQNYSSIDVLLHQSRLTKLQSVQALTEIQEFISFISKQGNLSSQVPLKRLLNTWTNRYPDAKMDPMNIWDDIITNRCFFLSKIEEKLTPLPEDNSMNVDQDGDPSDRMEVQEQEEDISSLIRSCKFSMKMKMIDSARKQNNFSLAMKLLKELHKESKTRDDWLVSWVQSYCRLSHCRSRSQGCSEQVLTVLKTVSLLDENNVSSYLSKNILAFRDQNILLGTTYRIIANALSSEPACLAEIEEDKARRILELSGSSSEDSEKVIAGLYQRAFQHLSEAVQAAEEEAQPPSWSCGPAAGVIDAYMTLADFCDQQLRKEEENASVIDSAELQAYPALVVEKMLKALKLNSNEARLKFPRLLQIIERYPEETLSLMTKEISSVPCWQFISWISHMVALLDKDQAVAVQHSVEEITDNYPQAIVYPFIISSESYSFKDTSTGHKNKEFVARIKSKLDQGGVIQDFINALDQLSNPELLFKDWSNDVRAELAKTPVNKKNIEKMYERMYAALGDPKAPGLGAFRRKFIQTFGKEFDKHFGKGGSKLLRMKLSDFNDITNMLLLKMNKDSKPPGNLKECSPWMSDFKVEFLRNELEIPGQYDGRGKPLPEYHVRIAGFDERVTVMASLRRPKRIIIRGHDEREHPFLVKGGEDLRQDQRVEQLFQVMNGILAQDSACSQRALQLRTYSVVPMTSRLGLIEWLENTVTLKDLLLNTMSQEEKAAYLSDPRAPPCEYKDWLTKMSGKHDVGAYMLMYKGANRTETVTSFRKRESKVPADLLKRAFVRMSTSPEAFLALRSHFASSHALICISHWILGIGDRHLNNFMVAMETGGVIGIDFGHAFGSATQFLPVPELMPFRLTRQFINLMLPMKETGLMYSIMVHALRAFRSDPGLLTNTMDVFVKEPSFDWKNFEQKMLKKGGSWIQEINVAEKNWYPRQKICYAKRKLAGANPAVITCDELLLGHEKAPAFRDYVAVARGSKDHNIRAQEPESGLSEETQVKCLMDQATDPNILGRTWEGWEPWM
Serine/threonine-protein kinase PAK 6 (Homo sapiens), sequence (Q9NQU5 whole entry, looked up): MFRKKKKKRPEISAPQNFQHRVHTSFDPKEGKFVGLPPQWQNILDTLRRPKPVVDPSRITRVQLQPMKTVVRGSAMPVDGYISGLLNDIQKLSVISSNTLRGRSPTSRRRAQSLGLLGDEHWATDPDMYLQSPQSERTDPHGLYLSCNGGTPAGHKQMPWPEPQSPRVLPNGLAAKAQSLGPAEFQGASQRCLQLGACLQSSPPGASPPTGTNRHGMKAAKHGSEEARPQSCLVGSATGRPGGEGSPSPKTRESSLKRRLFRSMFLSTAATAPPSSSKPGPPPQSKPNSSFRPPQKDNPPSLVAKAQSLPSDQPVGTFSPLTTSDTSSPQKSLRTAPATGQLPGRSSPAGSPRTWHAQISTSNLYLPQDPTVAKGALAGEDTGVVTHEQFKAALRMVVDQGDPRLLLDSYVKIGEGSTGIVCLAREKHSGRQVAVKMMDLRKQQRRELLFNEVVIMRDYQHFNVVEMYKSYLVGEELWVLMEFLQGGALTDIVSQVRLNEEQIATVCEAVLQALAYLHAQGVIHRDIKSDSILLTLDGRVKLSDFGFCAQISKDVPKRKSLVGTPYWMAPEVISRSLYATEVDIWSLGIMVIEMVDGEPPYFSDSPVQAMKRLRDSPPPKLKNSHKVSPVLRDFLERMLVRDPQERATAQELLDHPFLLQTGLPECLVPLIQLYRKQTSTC

On to `Cc1cc([C@@H](C)Nc2ccccc2C(=O)O)c2nc(N3CCOCC3)cc(=O)n2c1` [AZD-6482], for which the % of control in experiment [1] came out at 99%; in experiment [2], 84%.

For the compound `CCN(CC)CCCCNc1ncc2cc(-c3cc(OC)cc(OC)c3)c(NC(=O)NC(C)(C)C)nc2n1`, the % of control in [3] was determined as 100%.

As to `COCC(=O)NC/C=C/c1ccc2ncnc(Nc3ccc(Oc4ccc(C)nc4)c(C)c3)c2c1` [CP-724714], the % of control in experiment [4] worked out at 80%; in [5] it was 100%.

For the compound `N#Cc1cccc(-c2c[nH]c3ncnc(N4CCOCC4)c23)c1`, the % of inhibition in experiment [6] came to 16%; in experiment [7] it was 8%.

As to `C=CC(=O)Nc1ccc(C(=O)Nc2[nH]nc3c2CN(C(=O)N[C@H](CN(C)C)c2ccccc2)C3(C)C)cc1`, the % of engagement in experiment [8] was -21.9%; in experiment [9], -9.9%.

The record behind these values is ChEMBL document CHEMBL5465560, “Selectivity Literature for EUbOPEN Chemogenomic Library” (2024).
